From US7652006B2, “Substituted 1(2H)-phthalazinones and pharmaceutical compositions thereof” (Euro-Celtique S.A., priority 1998, dated 2010)
Where a name gives a salt, the structure may show the parent alone. Read-outs that look alike come from different tables or passages of the source.

Test system: AMPA receptors
Assay: electrophysiological assay, AMPA receptors expressed in oocyte
Type: cell-based, rat
Description: The compounds of the present invention may be assessed by electrophysiological assays in Xenopus oocytes expressing rat whole brain poly(A)^+ RNA (see Keana et. al. J. Med. Chem. 38: 4367-4379 (1995)) or in cultured rat cortical neurons (see Woodward et. al. Mol. Pharmacol. 47: 568-581 (1995)) for AMPA receptor activity. Compounds which are useful for treating or preventing the adverse consequences of stroke, hypoglycemia, neurodegenerative disorders, anxiety, epilepsy or psychosis, or which induce analgesia, will inhibit the currents across the membranes of the oocyte expressing AMPA receptors. However, if the compound potentiates currents across the oocyte membrane, then the compound is expected to be useful in enhancing cognition or treating schizophrenia or neurodegenerative disease such as Parkinson's Disease.
The potency of antagonism or potentiation for these compounds were determined by electrophysiological assay. Potencies of selective compounds described above in inhibiting or modulating AMPA receptors expressed in oocyte and their anticonvulsant activity against maximal electroshock induced convulsion are shown in Table 1.

[1] = inhibiting or modulating AMPA receptors expressed in oocyte; read-out: AMPA IC50

SMILES | IC50 [1] | IC50 (read-out: AMPA IC50; inhibiting or modulating AMPA receptors expressed in oocyte)
CCOc1nc(-c2ccc3c(c2)OCO3)c2cc3c(cc2n1)OCO3 [2-Ethoxy-6,7-methylenedioxy-4-(3,4-methylenedioxyphenyl)-quinazoline] | 6 µM | –
CCn1c(=O)nc(-c2cc3c(cc2N)OCO3)c2cc3c(cc21)OCO3 [1-Ethyl-6,7-methylenedioxy-4-(2-amino-4,5-methylenedioxyphenyl)quinazolin-2(1H)-one] | 7 µM | –
O=c1nc(-c2ccc3c(c2)OCO3)c2cc3c(cc2n1CCn1ccnc1)OCO3 [1-(Imidazol-1-yl)ethyl-6,7-methylenedioxy-4-(3,4-methylenedioxyphenyl)quinazoline-2-one] | 5 µM | –
CCc1nc(-c2ccc3c(c2)OCO3)c2cc3c(cc2n1)OCO3 [2-Ethyl-4-(3,4-methylenedioxyphenyl)-6,7-methylenedioxyquinazoline] | 4.3 µM | –
OCc1nc(-c2ccc3c(c2)OCO3)c2cc3c(cc2n1)OCO3 [2-Hydroxymethyl-6,7-methylenedioxy-4-(3,4-methylenedioxyphenyl)quinazoline] | 6 µM | –
CCn1c(=O)nc(-c2cc3c(cc2[N+](=O)[O-])OCO3)c2cc3c(cc21)OCO3 [1-Ethyl-6,7-methylenedioxy-4-(3,4-methylenedioxy-6-nitrophenyl)quinazolin-2(1H)-one] | 4.7 µM | –
COCCn1c(=O)nc(-c2ccc3c(c2)OCO3)c2cc3c(cc21)OCO3 [1-[(2-Methoxy)ethyl]-6,7-methylenedioxy-4-(3,4-methylenedioxyphenyl)quinazoline-2-one] | 13 µM | –
NCCn1c(=O)nc(-c2ccc3c(c2)OCO3)c2cc3c(cc21)OCO3 [1-(2-aminoethyl)-6,7-methylenedioxy-4-(3,4-methylenedioxyphenyl)quinazoline-2(1H)-one] | 1 µM | –
CN(C)CCCn1c(=O)nc(-c2ccc3c(c2)OCO3)c2cc3c(cc21)OCO3 [1-(3-Dimethylaminopropyl)-6,7-methylenedioxy-4-(3,4-methlenedioxyphenyl)quinazoline-2-one] | 3 µM | –
O=c1nc(-c2ccc3c(c2)OCO3)c2cc3c(cc2n1CC1CC1)OCO3 [1-cyclopropylmethyl-6,7-methylenedioxy-4-(3,4-methylenedioxyphenyl) quinazolin-2(1H)-one] | 6 µM | –
CC(C)(O)c1nc(-c2ccc3c(c2)OCO3)c2cc3c(cc2n1)OCO3 [6,7-methylenedioxy-4-(3,4-methylenedioxyphenyl)-2-(1-hydroxy-1-methylethyl)quinazoline] | 6 µM | –
Cc1nc2cc3c(cc2c(-c2ccc4c(c2)OCO4)[n+]1[O-])OCO3 [2-Methyl-6,7-methylenedioxy-4-(3,4-methylenedioxyphenyl)quinazoline 3-oxide] | 4 µM | –
ClCCc1nc(-c2ccc3c(c2)OCO3)c2cc3c(cc2n1)OCO3 [2-(2-Chloroethyl)-6,7-methylenedioxy-4-(3,4-methylenedioxyphenyl)quinazoline] | – | 3 µM
[O-][n+]1c(Cn2ccnc2)nc2ccc3c(c2c1-c1ccc2c(c1)OCO2)OCO3 [2-(1-Imidazolyl)methyl-5,6-methylenedioxy-4-(3,4-methylenedioxyphenyl)quinazoline 3-oxide hydrochloride] | 6 µM | –
OCCOc1nc(-c2ccc3c(c2)OCO3)c2cc3c(cc2n1)OCO3 [2-[(2-Hydroxy)ethoxy]-6,7-methylenedioxy-4-(3,4-methylenedioxyphenyl)quinazoline] | 4 µM | –
O=c1nc(-c2ccc3c(c2)OCO3)c2cc3c(cc2n1CCN1CCOCC1)OCO3 [4-(4,4-methylenedioxyphenyl)-6,7-methylenedioxy-1-(2-morpholinylethyl)-quinazolin-2(1H)-one] | 4 µM | –
CC(C)n1c(=O)nc(-c2ccc3c(c2)OCO3)c2cc3c(cc21)OCCO3 [6,7-Ethylenedioxy-1-isopropyl-4-(3,4-methylenedioxyphenyl)quinazolin-2(1H)-one] | 7 µM | –
O=c1nc(-c2ccc3c(c2)OCO3)c2cc3c(cc2n1CCO)OCO3 [1-[(2-Hydroxy)ethyl]-6,7-methylenedioxy-4-(3,4-methylenedioxyphenyl)quinazoline-2-one] | 1.5 µM | –
